Assay [1] addresses T1, CD38 (Homo sapiens, UniProt P28907).
T1 sequence (P28907 45-300): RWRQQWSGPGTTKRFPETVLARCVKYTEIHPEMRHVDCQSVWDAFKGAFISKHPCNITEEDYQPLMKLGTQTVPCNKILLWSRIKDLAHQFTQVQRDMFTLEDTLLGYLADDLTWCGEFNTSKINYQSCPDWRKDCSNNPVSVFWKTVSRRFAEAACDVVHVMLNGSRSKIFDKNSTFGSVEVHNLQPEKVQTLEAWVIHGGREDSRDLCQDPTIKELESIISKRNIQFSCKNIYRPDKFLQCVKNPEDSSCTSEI
Put plainly: CD38 activity and inhibition measurements (time-dependent inactivation, NGD+ to cGDPR, absorbance at 295 nm). Format: biochemical. The settings on record: for residual enzymatic activity, % of the control: 10 min after treatment of enzyme (500 nM) with excess inhibitor (10 μM), 10 min, 10 µM. On the procedure:
[…] Aliquots of the reaction were assayed by placing 5 μl of the reaction mixture into 1 ml of 50 mM HEPES (pH 7.5) containing 100 μM NGD^+, at 30, 60, 90, 120, 180, or 300 sec. The conversion of NGD^+ to cGDPR was monitored by determining absorbance at 295 nm. A reaction mixture lacking inhibitor was used as a control. Activity was determined as a function of time, and fitted to the equation A(t)=[…]^-kt, where A0 is activity at time zero (control), t is time in seconds, and k is the observed pseudo-first-order rate constant. Human CD38 (200 nM) was incubated with β-1'-pyridyl-2'-deoxyribose (25 mM) in a volume of 100 μl of 50 mM Tricine (pH 7.5). Aliquots of the reaction (5 μl) were assayed by placing into 1 ml of 50 mM HEPES (pH 7.5) containing 100 μM NGD^+ at 750, 1500, 2250, 3000, 4000, 8000, and 14400 s. The conversion of NGD^+ to cGDPR was monitored by absorbance at 295 nm. A reaction mixture lacking inhibitor was used as a control. Activity was determined as a function of time, and fitted to the equation A(t)=C+[…]^-kt, where A0 is activity at time zero (control), t is time in s, k is the observed pseudo-first-order rate constant, and C represents uninhibited activity at equilibrium.

The target in assay [2] is T1, CD38. Put plainly: Radiochemical measurement of reaction rates (covalent labelling of CD38 by [2′-3H] inhibitor, gel filtration). Conditions: for kon (radioactivity, radiolabeled inhibitor bound versus time): [2′-3H]βNdR 9 μM, CD38 1.2 μM, gel filtration. Type of assay: binding. On the procedure:
[2′-^3H]β-1′-nicotinamide-2′-deoxyribose ([2′-^3H]βNdR) was used to measure the covalent interaction of inhibitor with CD38 as follows: 9 μM inhibitor with specific activity of 1233 cpm/nmol was incubated with 1.2 μM CD38 in a volume of 1 ml of 50 mM potassium phosphate (pH 7.5). The reactions were started by enzyme addition, and quenched by freezing in a dry ice/acetone bath after 30, 60, 90, 120, 250, 500, and 1000 sec. Samples were placed on 1 ml gel filtration columns (0° C.) that were used to separate protein from free inhibitor. Columns were cooled on ice, and eluted with cold (0° C.) 10 mM potassium phosphate (pH 7.5) as eluant. Fractions (1 ml) were combined with 9 ml of scintillation fluid, and counted for radioactivity. A sample lacking enzyme, but having the same incubations, was performed as a blank control. A sample using the α-[2′-^3H]nicotinamide-2′-deoxyribose of equal concentration and specific activity, and having the same incubations, was performed as a second control. The observed cpm in the protein peak (fractions 3+4) was fitted to the equation A(t)=A0(1−exp(−kt))+B, where A(t) is the cpm in protein at time t, A0 is the cpm at reaction completion, k is the observed pseudo-first-order rate constant, B is the activity of the blank, and t is the time in seconds.
The covalent interaction of [2′-^3H]β-1′-pyridyl-2′-deoxyribose with CD38 was measured as follows: 25 mM inhibitor with specific activity of 1233 cpm/nmol was incubated with 25.2 μM CD38 in a volume of 50 μl of 50 mM Tricine (pH 7.5). The reactions were started by enzyme addition, and quenched by freezing in a dry ice/acetone bath after 2 h, 7200 s. Samples were placed on (0° C.) 1-ml gel filtration columns (P-10) that were used to separate protein from free inhibitor. Columns were cooled on ice, and eluted with cold (0° C.) 10 mM potassium phosphate (pH 7.5) as eluant. Fractions (1 ml) were combined with 9 ml of scintillation fluid, and counted for radioactivity. A sample lacking enzyme, but undergoing the same incubations, was performed as a blank control. A sample using the α-[2′-^3H]nicotinamide-2′-deoxyribose of equal concentration and specific activity, and the same incubations, was used as a second control. The observed cpm in the protein peak (fractions 3+4) were fitted to the equation A(t)=A0(1−exp(−kt))+B, where A(t) is the cpm in protein at time t, A0 is the cpm at reaction completion, k is the observed pseudo-first-order rate constant, B is the activity of the blank, and t is the time in s.
In general terms: Size exclusion chromatography separates by hydrodynamic size, large species first.

The target of assay [3] is T1, CD38. Nature of the assay: Determination of Ki and kchem by competitive method (NGD+ substrate, absorbance at 295 nm). Format: biochemical. On the procedure: CD38 was used to start reactions containing 1-ml solutions of 50 mM potassium phosphate, 100 μM NGD, and 50, 25, 12.5, 6.25, and 0 μM βNdR. Reactions were initiated with 2 μl of 7 μM CD38, and reaction progress was monitored by measurement of absorbance at 295 nm. The initial slopes were used to determine the Ki value. The time course of absorbance for each sample was fitted to the equation A(t)=vt+(b−v)(1−exp(−kt))/k+A0, where k is the observed rate constant, b is the initial rate, v is the final rate, and A0 is the initial absorbance. The rate constant kchem (FIG. 3) was determined as reported (19).
This mechanism of inhibition was tested by treatment of CD38 with different concentrations of inhibitor in the presence of 50 Km of substrate to establish values for Ki and kchem. In the presence of 100 μM NGD^+, reaction mixtures containing 0 to 50 μM βNdR were initiated by addition of enzyme (FIG. 8).

In assay [4] the target is T1, CD38. The assay is described as above. Type of assay: biochemical. This is another data set of the same source.
The target of assay [5] is T2, CD38 (Homo sapiens, UniProt P28907).
T2 sequence (P28907 1-300): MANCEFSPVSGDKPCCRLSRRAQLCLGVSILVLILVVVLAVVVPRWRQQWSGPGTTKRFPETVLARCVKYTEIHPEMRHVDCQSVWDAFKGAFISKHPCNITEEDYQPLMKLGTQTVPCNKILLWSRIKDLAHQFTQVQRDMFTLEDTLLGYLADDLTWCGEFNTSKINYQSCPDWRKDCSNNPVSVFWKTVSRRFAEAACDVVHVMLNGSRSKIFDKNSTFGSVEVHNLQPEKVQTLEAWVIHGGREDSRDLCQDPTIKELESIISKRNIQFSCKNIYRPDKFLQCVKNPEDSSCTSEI
Conditions: 37° C.; cited from earlier work.

Assay [6] has as its target T1, CD38. Nature of the assay: Off-rate measurement (recovery of CD38 catalytic activity after inactivation). Format: biochemical. As for the experimental part:
Recovery of CD38 catalytic activity after inactivation with β-1′-nicotinamide-2′-deoxyribose was measured in reaction mixtures containing 500 nM CD38, 50 mM inhibitor, and 15 μM deoxyriboside. After timed intervals, 5 μl of the reaction mixture were added to a 1-ml reaction of 50 mM HEPES (pH 7.5) containing 300 μM NGD^+. A control was also prepared without the inhibitor. Production of cGDPR was determined by monitoring absorbance at 295 nm. The absorbance was fitted to the equation A(t)=vt+(b−v)(1−exp(−kofft))/koff+A0 (19), where koff is the observed rate constant, b is the initial rate, v is the final rate, and A0 is the initial absorbance. Recovery of CD38 catalytic activity after inhibition by βNdR was measured by adding inactivated CD38 to solutions of NGD^+, and monitoring absorbance change at 295 nm for periods of 3-4 h. The recovery process was slow: full catalytic activity was not restored over this time period. However, the measured rate constant for recovery could be measured by regressive fit of the data to the activity recovery equation, A(t)=vt+(b−v)(1−exp(−kofft))/koff+A0, where koff is the observed rate constant, b is the initial rate, v is the final rate, and A0 is the initial absorbance. […] The proposed mechanism of recovery operates through the hydrolytic path (FIG. 4).

Where [7] appears, read: listed as β-1′-nicotinamide-2′-deoxyribose.

The Km is the concentration of substrate that gives half-maximal velocity.

Values joined by “and” are separate entries in the source; they are usually repeats but may differ in a detail not shown here. Identical values can stand only once.

Take “5′-phospho-1′-β-pyridyl-2′-deoxyribose [5′-phospho-1′-pyridyl-deoxyribose]”: the “effect of extended incubation on CD38” value in assay [1] (200 μM inhibitor) is given as “inhibited the enzyme”. Besides, the “minimum value for kchem” value in assay [1] (200 μM inhibitor, extended incubations, activity versus time) was not below 0.00022 s⁻¹. Also, in assay [2] ([2′-3H] labelled inhibitor, gel-filtration), the “covalent attachment of the sugar moiety to the enzyme” value is on record as “confirmed covalent attachment”. For the same molecule, the Ki in assay [3] (5′-phospho derivative, similar studies, read-out: Ki) is more than 200 µM.
With `NC(=O)c1ccc[n+]([C@@H]2O[C@H](COP(=O)([O-])OP(=O)(O)OC[C@H]3O[C@@H](n4cnc5c(=O)[nH]c(N)nc54)[C@H](O)[C@@H]3O)[C@@H](O)[C@H]2O)c1` [NGD^+, Nicotinamide guanine dinucleotide, reference compound], the Michaelis-Menten constant (Km) in assay [4] (CD38 substrate) was found to be 2 µM.
In the case of `NC(=O)c1ccc[n+]([C@@H]2O[C@H](COP(=O)(O)O)[C@@H](O)[C@H]2O)c1` [NMN^+], the “kcat for hydrolysis (hydrolysis of the covalent intermediate)” value in assay [5] was 512 s⁻¹.
With `OC[C@H]1O[C@@H]([n+]2ccccc2)C[C@@H]1O` [β-pyridyl-deoxyribose, β-1′-pyridyl-2′-deoxyribose], the “extent of inhibition achieved” value in assay [1] (25 mM inhibitor, limited by long onset times and inhibitor decomposition) is recorded as 60-80%. In addition, the “rate of covalent inactivation, equivalent to kchem” value in assay [1] (saturating concentration (25 mM), absence of NGD+) turned out to be 0.00017 s⁻¹. The Ki is 323 µM in assay [3] (calculated value, read-out: Kieff (koffKi/kchem)) and 11000 µM in assay [4] (50 μM to 50 mM inhibitor, 5 μM (3 Km) NGD+, read-out: Ki for CD38 inhibition). The “Kieff relative to Kieff for βNdR” value in assay [3] (times larger) is reported as 10^5 times.
On to `NC(=O)c1ccc[n+]([C@H]2C[C@H](O)[C@@H](CO)O2)c1` [βNdR, β-1′-nicotinamide-2′-deoxyribose], for which the “residual enzymatic activity, % of the control” value is “less than 5%” in assay [1] and less than 5% in assay [1] (setting [7]). The Ki in assay [1] (kon from activity decay, read-out: Kieff = koff/kon (Activity, koff)) worked out at 0.0051 µM; in assay [1] (read-out: Kieff = koff/kon (kon from activity decay)), 0.005 µM; in assay [2] (kon from radioactivity, read-out: Kieff = koff/kon (Radioactivity, koff)) it was 0.0033 µM; in assay [2] (read-out: Kieff = koff/kon (kon from radioactivity)) it was 0.0032 µM; in assay [3] (100 μM NGD+, 0 to 50 μM inhibitor, listed as β-1′-nicotinamide-2′-deoxyribose, read-out: Ki (competitive, initial slopes)), 2.5 µM; in assay [3] (100 μM NGD+, 0 to 50 μM inhibitor, read-out: Ki (competitive, initial slopes)) it was 1 µM. The Ki in assay [3] (average of the three Kieff values, read-out: Kieff (Average of values)) was 0.0029 µM; in assay [3] (listed as β-D-1′-nicotinamide-2′-deoxyribofuranoside, read-out: Kieff, effective inhibition constant (average)), 0.0029 µM; in assay [3] (read-out: Kieff = Kikoff/kchem) it was 0.0004 µM; in assay [3] (read-out: Kieff, effective inhibition constant (average)), 0.0029 µM and 0.002 µM. In addition, the “kon (radioactivity, radiolabeled inhibitor bound versus time)” value amounted to 1540 M⁻¹ s⁻¹ in assay [2] and 1500 M⁻¹ s⁻¹ in assay [2] (setting [7]). Moreover, the “koff, rate constant for recovery (activity recovery, hydrolysis)” value in assay [6] (inactivated CD38 added to NGD+, 3-4 h, no nicotinamide) amounted to 5e-06 s⁻¹. Further, the “rate of CD38-deoxyribose hydrolysis relative to CD38 ribose 5-phosphate” value in assay [6] (ratio of hydrolysis rates of covalent intermediates) is on record as 10^−8. For the same molecule, the “kchem, rate constant for chemical reaction (competitive onset)” value in assay [3] (100 μM NGD+, 0 to 50 μM inhibitor, listed as β-1′-nicotinamide-2′-deoxyribose) turned out to be 0.0126 s⁻¹.
